Measured values published in US20060122198A1, “Antiepileptic agent” (Kyowa Hakko Kogyo Co., Ltd., priority 2003, published 2006).

How the values were obtained:
[1] = tested on: convulsion induced by administration of reserpine and electric stimulation; assay: Antiepileptic action: tonic extended convulsion induced by reserpine and electric stimulation; assay type: in vivo; details: male ddY mice treated with reserpine 5 mg/kg i.p.; test compound 30 mg/kg orally; electric stimulation 1,000 V, 50 mA, 0.2 second after one hour; compared with reserpine + solvent group, p<0.01 (Aspine-Welch test)
Procedure: Convulsion induced by administration of reserpine and electric stimulation has been known as an effective model for epilepsy [European Journal of Pharmacology, 1994, volume 23, page 260]. Male mice (body weight: 15 to 17 g; Nippon SLC, Hamamatsu) of ddY strain of four weeks age were subjected to a preliminary breeding and 65 mice where body weight became 22.4 to 26.0 g were used for the experiment. Fifteen mice among the above were used as a non-treated group. Reserpine (Apoplon Injection 1 mg; Daiichi Seiyaku) diluted with distilled water for injection (Otsuka Seiyaku, Naruto) was intraperitoneally administered (treatment with reserpine) at the dose of 5 mg/kg to each of the remaining 50 mice and the experiment was carried out after 18 to 24 hours from the administration. Among the mice subjected to the treatment with reserpine, two groups each comprising ten mice were randomly selected and used as a group administered with a solvent and a group administered with the test compound. The test compound was used as a suspension of a 0.5% MC solution [distilled water for injection containing 0.5% methyl cellulose 400 cP (Wako Pure Chemicals)] and Compound (I) was orally administered at the dose of 30 mg/kg (10 mL/kg in terms of volume) to the mice treated with reserpine (a group administered with the test compound). […]

[2] = tested on: male mice of dd-strain; details: mouse, in vivo, po, 7 days
Procedure: A test compound was orally administered to male mice (body weight: 20±1 g) of dd-strain which comprises three mice per group. State of death after 7 days from the administration was observed and the minimum lethal dose (MLD) was determined.

| Structure (SMILES) | duration of convulsion (tonic extended convulsion) [1] | minimum lethal dose (MLD) [2] |
| --- | --- | --- |
| CCCn1c(=O)c2c(nc(/C=C/c3ccc(OC)c(OC)c3)n2C)n(CCC)c1=O [Compound 3, (E)-8-(3,4-Dimethoxystyryl)-7-methyl-1,3-dipropylxanthine] | significant shortening action | – |
| COc1cc(/C=C/c2nc3c(c(=O)n(C)c(=O)n3C)n2C)cc(OC)c1OC [Compound 1, (E)-8-(3,4,5-Trimethoxystyryl)caffeine] | significant shortening action | > 1,000 mg/kg |
